In patent publication US5925632A, “Derivatives of 3-pyrrolidylidene-2-one-cephalsporines” (Hoffmann-La Roche Inc., priority 1995, dated 1999):
≈ marks a conversion by molar mass, not a printed value. Counter-ions that a name gives are not always drawn.

Key:
Assay in all cases: MIC, agar dilution method in Mueller Hinton agar
Assay type in all cases: cell-based
E. cloacae 908SSi = settings: Enterobacter cloacae, read-out: MIC (Minimum Inhibiting Concentration)
Method: (§1) In vitro activity was determined by minimum inhibitory concentration in a microorganism spectum by the agar dilution method in Mueller Hinton agar.

E. faecalis 6 = settings: Enterococcus faecalis, read-out: MIC (Minimum Inhibiting Concentration)
Method: as §1

C. freundii 43 = settings: Citrobacter freundii, read-out: MIC (Minimum Inhibiting Concentration)
Method: as §1

S. pyogenes B15 = settings: Streptococcus pyogenes, read-out: MIC (Minimum Inhibiting Concentration)
Method: as §1

K. pneumoniae 418 = settings: Klebsiella pneumoniae, read-out: MIC (Minimum Inhibiting Concentration)
Method: as §1

P. mirabilis 2117 = settings: Proteus mirabilis, read-out: MIC (Minimum Inhibiting Concentration)
Method: as §1

S. aureus 6538 = settings: Staphylococcus aureus, read-out: MIC (Minimum Inhibiting Concentration)
Method: as §1

S. marcescens 69438 = settings: Serratia marcescens, read-out: MIC (Minimum Inhibiting Concentration)
Method: as §1

L. monocytogenes BK23 = settings: Listeria monocytogenes, read-out: MIC (Minimum Inhibiting Concentration)
Method: as §1

M. catarrhalis RA21 = settings: Moraxella catarrhalis, read-out: MIC (Minimum Inhibiting Concentration)
Method: as §1

M. morganii 6H-137 = settings: Morganella morganii, 6H137, read-out: MIC (Minimum Inhibiting Concentration)
Method: as §1

C. freundii 902 = settings: Citrobacter freundii, read-out: MIC (Minimum Inhibiting Concentration)
Method: as §1

E. cloacae 908R = settings: Enterobacter cloacae, read-out: MIC (Minimum Inhibiting Concentration)
Method: as §1

X. maltophilia 1AC739 = settings: Stenotrophomonas maltophilia, read-out: MIC (Minimum Inhibiting Concentration)
Method: as §1

S. aureus 734 MRSA = settings: Staphylococcus aureus, read-out: MIC (Minimum Inhibiting Concentration)
Method: as §1

S. pneumoniae Q19 = settings: Streptococcus pneumoniae, read-out: MIC (Minimum Inhibiting Concentration)
Method: as §1

S. agalactiae QK44 = settings: Streptococcus agalactiae, read-out: MIC (Minimum Inhibiting Concentration)
Method: as §1

S. viridans group 016 = settings: Streptococcus viridans, GROUP016, read-out: MIC (Minimum Inhibiting Concentration)
Method: as §1

E. coli 25922 = settings: Escherichia coli, read-out: MIC (Minimum Inhibiting Concentration)
Method: as §1

[1] = system: Actinetobacter sp. 51-156; settings: read-out: MIC (Minimum Inhibiting Concentration)
Method: as §1

H. influenzae 1 = settings: Haemophilus influenzae, read-out: MIC (Minimum Inhibiting Concentration)
Method: as §1

N. meningitidis 69480 = settings: Neisseria meningitidis, read-out: MIC (Minimum Inhibiting Concentration)
Method: as §1

P. aeruginosa 27853 = settings: Pseudomonas aeruginosa, read-out: MIC (Minimum Inhibiting Concentration)
Method: as §1

P. vulgaris 1028 = settings: Proteus vulgaris, read-out: MIC (Minimum Inhibiting Concentration)
Method: as §1

MIC (E. cloacae 908SSi)	MIC (E. faecalis 6)	MIC (C. freundii 43)	MIC (S. pyogenes B15)	MIC (K. pneumoniae 418)	MIC (P. mirabilis 2117)	MIC (S. aureus 6538)	MIC (S. marcescens 69438)	MIC (L. monocytogenes BK23)	MIC (M. catarrhalis RA21)	MIC (M. morganii 6H-137)	MIC (C. freundii 902)	MIC (E. cloacae 908R)	MIC (X. maltophilia 1AC739)	MIC (S. aureus 734 MRSA)	MIC (S. pneumoniae Q19)	MIC (S. agalactiae QK44)	MIC (S. viridans group 016)	MIC (E. coli 25922)	MIC [1]	Structure (SMILES)	also measured
0.5 µg/mL	1 µg/mL	4 µg/mL	≤ 0.06 µg/mL	0.5 µg/mL	0.25 µg/mL	1 µg/mL	1 µg/mL	4 µg/mL	1 µg/mL	0.25 µg/mL	0.25 µg/mL	16 µg/mL	> 32 µg/mL	4 µg/mL	≤ 0.06 µg/mL	0.25 µg/mL	≤ 0.06 µg/mL	0.25 µg/mL	16 µg/mL	CC(C)CN1CC/C(=C\C2=C(C(=O)O)N3C(=O)[C@@H](NC(=O)/C(=N\O)c4csc(N)n4)[C@H]3SC2)C1=O.O=C(O)C(F)(F)F [A, (6R,7R)-7-[(Z)-2-(2-amino-thiazol-4-yl)-2-hydroxyiminoacetylamino]-3-[(E)-1-isobutyl-2-oxo-pyrrolidin-3-ylidenemethyl]-8-oxo-5-thia-1-azabicyclo[4.2.0]oct-2-ene-2-carboxylic acid trifluoroacetate]	–
32 µg/mL (≈ 80.9 µM)	8 µg/mL (≈ 20.2 µM)	> 32 µg/mL	≤ 0.06 µg/mL	0.12 µg/mL (≈ 0.303 µM)	0.12 µg/mL (≈ 0.303 µM)	0.5 µg/mL (≈ 1.26 µM)	16 µg/mL (≈ 40.5 µM)	16 µg/mL (≈ 40.5 µM)	1 µg/mL (≈ 2.53 µM)	8 µg/mL (≈ 20.2 µM)	16 µg/mL (≈ 40.5 µM)	> 32 µg/mL	> 32 µg/mL	> 32 µg/mL	0.25 µg/mL (≈ 0.632 µM)	0.25 µg/mL (≈ 0.632 µM)	2 µg/mL (≈ 5.06 µM)	0.25 µg/mL (≈ 0.632 µM)	> 32 µg/mL	C=CC1=C(C(=O)O)N2C(=O)[C@@H](NC(=O)/C(=N\O)c3csc(N)n3)[C@H]2SC1 [Cefdinir, reference compound]	MIC (H. influenzae 1): 0.5 µg/mL (≈ 1.26 µM); MIC (N. meningitidis 69480): ≤ 0.06 µg/mL; MIC (P. aeruginosa 27853): > 32 µg/mL; MIC (P. vulgaris 1028): 1 µg/mL (≈ 2.53 µM)
2 µg/mL	2 µg/mL	8 µg/mL	≤ 0.06 µg/mL	1 µg/mL	0.25 µg/mL	1 µg/mL	4 µg/mL	4 µg/mL	16 µg/mL	0.5 µg/mL	1 µg/mL	32 µg/mL	> 32 µg/mL	16 µg/mL	≤ 0.06 µg/mL	0.5 µg/mL	1 µg/mL	1 µg/mL	32 µg/mL	CC(C)(C)CN1CC/C(=C\C2=C(C(=O)O)N3C(=O)[C@@H](NC(=O)/C(=N\O)c4csc(N)n4)[C@H]3SC2)C1=O [B, (6R,7R)-7-[(Z)-2-(2-amino-thiazol-4-yl)-2-(hydroxyiminoacetylamino]-3-[(E)-1-(2,2-dimethyl-propyl)-2-oxo-pyrrolidin-3-ylidenemethyl]-8-oxo-5-thia-1-azabicyclo[4.2.0]oct-2-ene-2-carboxylic acid trifluoroacetate]	MIC (P. vulgaris 1028): 4 µg/mL
2 µg/mL	2 µg/mL	8 µg/mL	≤ 0.06 µg/mL	1 µg/mL	0.5 µg/mL	1 µg/mL	4 µg/mL	4 µg/mL	16 µg/mL	4 µg/mL	1 µg/mL	16 µg/mL	> 32 µg/mL	8 µg/mL	≤ 0.06 µg/mL	0.25 µg/mL	0.5 µg/mL	1 µg/mL	16 µg/mL	Nc1nc(/C(=N/O)C(=O)N[C@@H]2C(=O)N3C(C(=O)O)=C(/C=C4\CCN(CC5CCCCC5)C4=O)CS[C@H]23)cs1 [C, (6R,7R)-7-[(Z)-2-(2-amino-thiazol-4-yl)-2-(hydroxyiminoacetylamino]-3-[(E)-1-cyclohexylmethyl-2-oxo-pyrrolidin-3-ylidenemethyl]-8-oxo-5-thia-1-azabicyclo[4.2.0]oct-2-ene-2-carboxylic acid trifluoroacetate]	MIC (P. vulgaris 1028): 0.5 µg/mL
0.25 µg/mL (≈ 0.451 µM)	> 32 µg/mL	32 µg/mL (≈ 57.7 µM)	≤ 0.06 µg/mL	≤ 0.06 µg/mL	≤ 0.06 µg/mL	4 µg/mL (≈ 7.21 µM)	0.25 µg/mL (≈ 0.451 µM)	> 16 µg/mL	1 µg/mL (≈ 1.8 µM)	≤ 0.06 µg/mL	0.25 µg/mL (≈ 0.451 µM)	> 32 µg/mL	> 32 µg/mL	> 32 µg/mL	≤ 0.06 µg/mL	≤ 0.06 µg/mL	0.25 µg/mL (≈ 0.451 µM)	≤ 0.06 µg/mL	32 µg/mL (≈ 57.7 µM)	CO/N=C(\C(=O)N[C@@H]1C(=O)N2C(C(=O)O)=C(CSc3nc(=O)c(=O)[nH]n3C)CS[C@H]12)c1csc(N)n1 [Ceftriaxone, [6R-[6a,7b(Z)]]-7-([[2-Amino-4-thiazolyl)(methoxyimino)acetyl]amino]-8-oxo-3-[[(1,2,5,6-tetrahydro-2-methyl-5,6dioxo-1,2,4-triazin-3-yl)thio]methyl]-5-thia-1-azabicyclo[4.2.0]oct-2-ene-2-carboxylic acid, reference compound]	MIC (H. influenzae 1): ≤ 0.06 µg/mL; MIC (N. meningitidis 69480): ≤ 0.01 µg/mL; MIC (P. aeruginosa 27853): 16 µg/mL (≈ 28.9 µM); MIC (P. vulgaris 1028): 0.12 µg/mL (≈ 0.216 µM)
